Drawing on US20230066011A1, “PYRROLOPYRIMIDINE DERIVATIVE, AND PHARMACEUTICAL COMPOSITION FOR PREVENTING OR TREATING PROTEIN KINASE-RELATED DISEASE COMPRISING SAME AS ACTIVE INGREDIENT” (VORONOI CO., LTD., priority 2019, published 2023), this text covers GI50, inhibition and remaining binding for twelve molecules.

The structures appear in SMILES notation.

Experiment [1] has as its system MDA-MB-231 cell line. In words: Inhibition of proliferation of MDA-MB-231 cancer cells (Cell Titer-Glo). As to conditions: Homo sapiens, 72 hours. Type of experiment: cell-based. In a few lines:
(§1)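 Growth inhibition over 72 h: cells seeded at 2,000/well and dosed at eleven 3-fold-spaced final concentrations from 10.000000 μM. Read-out is ATP luminescence (Cell Titer-Glo, 10 min, room temperature), with GI50 derived from it.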

Experiment [2] deals with MDA-MB-468 cell line. Nature of the experiment: Inhibition of proliferation of MDA-MB-468 cancer cells (Cell Titer-Glo). Type of experiment: cell-based. To be noted: Homo sapiens, MDA-MB-468, 72 hours. In a few lines:
as §1

Experiment [3] concerns TNF-α. In words: Inhibition of LPS-induced TNF-α secretion of THP-1 monocytes (ELISA). To be noted: Homo sapiens, THP-1; compound 0.5 μM, LPS 500 ng/mL, 24 hours; read-out: THP-1/TNF-α (% inhib). Type of experiment: cell-based, human. An outline of the steps:
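THP-1 monocytes grown 16 h at 37 °C, pretreated 1 h with compound at final 0.5 μM, then stimulated with LPS at final 500 ng/mL for 24 h. IL-6 and TNF-α in culture supernatant measured by ELISA (OD 450 nm).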

Experiment [4] relates to human DYRK1A and tau. In words: Inhibition of tau phosphorylation, ClariCELL Kinase Cell-Based Assay, HEK 293 cells expressing human DYRK1A and tau. To be noted: for inhibition at 1 µM: HEK293, read-out: % inhibition at 1 uM, tau phosphorylation, compound 1 uM; for inhibition at 0.25 µM / inhibition at 0.5 µM: HEK293, tau phosphorylation; for inhibition at 0.25 µM: compound 0.25 uM; for inhibition at 0.5 µM: compound 0.5 uM. An outline of the steps:
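Cell-based service assay: HEK 293 cells transiently expressing human DYRK1A and tau were treated with compound and lysed. Released tau was plate-captured and its phosphorylation quantified by ELISA with a phospho-tau-specific antibody.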

The target of experiment [5] is T1, CLK4 (Homo sapiens, UniProt Q9HAZ1).
T1 construct: purchased DiscoverX Corp. (ScanMAX Kinase analysis panel, service)
T1 sequence (Q9HAZ1 whole entry): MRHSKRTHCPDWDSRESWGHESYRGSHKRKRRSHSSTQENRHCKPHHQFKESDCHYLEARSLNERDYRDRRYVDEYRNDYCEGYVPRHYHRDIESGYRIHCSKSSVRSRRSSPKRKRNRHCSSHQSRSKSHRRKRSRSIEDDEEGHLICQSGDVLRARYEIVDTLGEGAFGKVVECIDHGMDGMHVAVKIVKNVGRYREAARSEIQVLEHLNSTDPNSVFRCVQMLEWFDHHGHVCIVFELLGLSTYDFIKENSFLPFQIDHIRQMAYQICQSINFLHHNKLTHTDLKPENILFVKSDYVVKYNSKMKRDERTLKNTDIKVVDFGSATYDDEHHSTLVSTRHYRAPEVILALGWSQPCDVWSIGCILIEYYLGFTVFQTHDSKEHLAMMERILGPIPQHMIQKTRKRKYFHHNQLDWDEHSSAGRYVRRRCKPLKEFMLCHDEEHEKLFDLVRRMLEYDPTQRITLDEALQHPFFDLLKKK
In words: ScanMAX Kinase analysis panel, CLK4. Type of experiment: binding. To be noted: 1 μM in DMSO; <35% considered inhibitory; read-out: percent control (% control), CLK4. As to the method: (§2) Specifically, the enzyme (kinase) selectivity of Example compounds 238, 361, 411, 157, 161, 228, and 158 selected from the Example compounds of the present invention was determined by commissioning DiscoverX Corp., and an experiment was performed using a ScanMAX™ Kinase analysis panel. In this case, a concentration of the drug with which the enzymes were treated was 1 μM in DMSO, and the percent control (% control) was defined in the same manner as in the following Expression 1.
(§3) (Example Compound−Positive Control)/(Negative Control−Positive Control)×100 [Expression 1]
(§4) wherein the positive control represents a compound having a percent control of 0%, and the negative control represents DMSO having a percent control of 100%. For the enzyme selectivity of the present invention, it was considered that the compound has an inhibitory activity on each of the enzymes when the percent control for the corresponding enzyme was <35% (i. e., less than 35%).

The target in experiment [6] is T2, TTK (Homo sapiens, UniProt P33981).
T2 sequence (P33981 1-857): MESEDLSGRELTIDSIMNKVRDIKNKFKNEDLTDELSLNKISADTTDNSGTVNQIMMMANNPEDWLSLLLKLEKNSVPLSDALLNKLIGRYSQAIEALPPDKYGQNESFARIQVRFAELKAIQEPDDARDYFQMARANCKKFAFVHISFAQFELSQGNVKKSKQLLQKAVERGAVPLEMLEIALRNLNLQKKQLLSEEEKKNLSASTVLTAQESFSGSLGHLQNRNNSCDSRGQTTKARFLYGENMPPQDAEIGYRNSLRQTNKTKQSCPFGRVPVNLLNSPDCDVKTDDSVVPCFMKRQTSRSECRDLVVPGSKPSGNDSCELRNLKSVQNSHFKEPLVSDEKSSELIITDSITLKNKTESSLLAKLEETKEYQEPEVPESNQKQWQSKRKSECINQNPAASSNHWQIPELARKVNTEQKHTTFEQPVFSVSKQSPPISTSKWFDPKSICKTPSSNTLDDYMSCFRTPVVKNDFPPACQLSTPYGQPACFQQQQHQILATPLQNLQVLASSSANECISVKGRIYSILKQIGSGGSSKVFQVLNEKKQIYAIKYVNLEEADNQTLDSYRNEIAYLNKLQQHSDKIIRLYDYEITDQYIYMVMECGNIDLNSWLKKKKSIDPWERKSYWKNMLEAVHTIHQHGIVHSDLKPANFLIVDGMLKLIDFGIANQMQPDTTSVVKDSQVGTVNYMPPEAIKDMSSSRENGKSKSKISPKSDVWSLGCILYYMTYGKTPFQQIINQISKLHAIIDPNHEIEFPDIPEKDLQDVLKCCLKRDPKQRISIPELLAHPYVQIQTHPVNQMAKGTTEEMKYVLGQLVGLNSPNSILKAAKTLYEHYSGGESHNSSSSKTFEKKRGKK
In words: ScanMAX Kinase analysis panel, TTK. Type of experiment: binding. The arrangement: purchased DiscoverX Corp. (commissioned ScanMAX panel service). To be noted: 1 μM in DMSO; <35% considered inhibitory; read-out: percent control (% control), TTK. As to the method:
as §2, §3, §4

With `CCNc1nc(Nc2ccc(S(=O)(=O)N3CCC(N4CCOCC4)CC3)c3c2OCCO3)nc2[nH]cc(C(F)(F)F)c12` [Example 430, N^4-ethyl-N^2-(8-((4-morpholino-piperidin-1-yl)sulfonyl)-2,3-dihydro-benzo[b][1,4]dioxin-5-yl)-5-(trifluoromethyl)-7H-pyrrolo[2,3-d]pyrimidine-2,4-diamine], in experiment [1], the GI50 lay in the range of 301 to 1000 nM. In addition, the GI50 in experiment [2] lay in the range of 301 to 1000 nM. Also, the inhibition at 0.5 µM in experiment [3] was 4.5%. Further, in experiment [4], the inhibition at 1 µM worked out at 65.3%, the inhibition at 0.25 µM turned out to be 10.8% and the inhibition at 0.5 µM was found to be 41.6%.
On to `O=C(c1ccc(Nc2nc(NC3CCCC3)c3c(C(F)(F)F)c[nH]c3n2)c2c1OCCO2)N1CCN(C2COC2)CC1` [Example 414, (8-((4-(cyclopentyl-amino)-5-(trifluoromethyl)-7H-pyrrolo[2,3-d]pyrimidin-2-yl)amino)-2,3-dihydrobenzo[b] [1,4]dioxin-5-yl) (4-(oxetan-3-yl)piperazin-1-yl)methanone], for which the GI50 in experiment [1] and in experiment [2] was 101 to 300 nM each time. In addition, the inhibition at 0.5 µM in experiment [3] was determined as 40.3%.
With `CCNc1nc(Nc2ccc(C(=O)N3CCN(C4COC4)CC3)c3c2OCCO3)nc2[nH]cc(C(F)(F)F)c12` [Example 400, (8-((4-(ethylamino)-5-(trifluoromethyl)-7H-pyrrolo[2,3-d]pyrimidin-2-yl)amino)-2,3-dihydrobenzo[b] [1,4]dioxin-5-yl) (4-(oxetan-3-yl)piperazin-1-yl)methanone], the GI50 in experiment [2] lay in the range of 301 to 1000 nM. Moreover, the inhibition at 0.5 µM in experiment [3] turned out to be 1%. Further, in experiment [4], the inhibition at 1 µM was determined as 69.4%, the inhibition at 0.25 µM is 22.3% and the inhibition at 0.5 µM turned out to be 46.5%.
The like results for `COCCNc1nc(Nc2ccc(P3(=O)CCN(C4CCOCC4)CC3)cc2OC)nc2[nH]cc(C(F)(F)F)c12` [Example 444, 4-(3-methoxy-4-((4-((2-methoxyethyl)amino)-5-(trifluoromethyl)-7H-pyrrolo[2,3-d]pyrimidin-2-yl)amino)phenyl)-1-(tetrahydro-2H-pyran-4-yl)-1,4-azaphosphinane 4-oxide] were, in that order, 301 to 1000 nM, 14.4%, 65.6%, 21.7% and 45.7%.
On to `COCCNc1nc(Nc2ccc(C(=O)N3CCC(N4CCOCC4)CC3)c3c2OCC3)nc2[nH]cc(C#N)c12` [Example 359, 4-((2-methoxy-ethyl)ami-no)-2-((4-(4-morpholino-piperidine-1-carbonyl)-2,3-dihydro-benzofuran-7-yl)amino)-7H-pyrrolo[2,3-d]pyrimidine-5-carbonitrile], for which the GI50 in experiment [1] and in experiment [2] was 301 to 1000 nM throughout. Also, the inhibition at 0.5 µM is 33.2% in experiment [3] and 42.8% in experiment [4]. In experiment [4], the inhibition at 1 µM amounted to 55.9%. In experiment [4], this molecule returned an inhibition at 0.25 µM of 23.4%.
For `O=C(c1ccc(Nc2nc(NC3CC3)c3c(C(F)(F)F)c[nH]c3n2)c2c1CCO2)N1CCC(N2CCOCC2)CC1` [Example 434, (7-((4-(cyclopropyl-amino)5-(trifluoromethyl)-7H-pyrrolo[2,3-d]pyrimidin-2-yl)amino)-2,3-dihydrobenzo-furan-4-yl)(4-morpho-linopiperidin-1-yl)methanone], in experiment [2], the GI50 is 301 to 1000 nM. Besides, the inhibition at 0.5 µM in experiment [3] is 16%. For the same molecule, in experiment [4], the inhibition at 1 µM is 87.3%, the inhibition at 0.25 µM came out at 47.4% and the inhibition at 0.5 µM is 65.2%.
The like results for `O=C(c1ccc(Nc2nc(NC3CCC3)c3c(C(F)(F)F)c[nH]c3n2)c2c1OCCO2)N1CCN(C2COC2)CC1` [Example 407, (8-((4-(cyclo-butylamino)-5-(trifluoromethyl)-7H-pyrrolo[2,3-d]pyrimidin-2-yl)amino)-2,3-dihydrobenzo[b] [1,4]dioxin-5-yl) (4-(oxetan-3-yl)piperazin-1-yl)methanone] were, in that order, 301 to 1000 nM, 5.3%, 58.6%, 20.7% and 39.4%.
In experiment [1], `COc1cc(S(=O)(=O)N2CCC(N3C[C@H]4C[C@@H]3CO4)CC2)ccc1Nc1nc(C2CC2)c2c(C(F)(F)F)c[nH]c2n1` [Example 473, N-(4-((4-((1R,4R)-2-oxa-5-azabicyclo[2.2.1]heptan-5-yl)piperidin-1-yl)sulfonyl)-2-methoxyphenyl)-4-cyclopropyl-5-(trifluoromethyl)-7H-pyrrolo[2,3-d]pyrimidin-2-amine] had a GI50 of 101 to 300 nM. The same molecule showed a GI50 in experiment [2] of 301 to 1000 nM. Besides, the inhibition at 0.5 µM in experiment [3] turned out to be 11.3%. In experiment [4], the inhibition at 1 µM worked out at 73.3%, the inhibition at 0.25 µM was determined as 16.3% and the inhibition at 0.5 µM came out at 35.8%.
`CCCNc1nc(Nc2ccc(C(=O)N3CCC(N4CCOCC4)CC3)c3c2OCC3)nc2[nH]cc(C(F)(F)F)c12` [Example 446, (4-morpholino-piperidin-1-yl)(7-((4-(propylamino)-5-(trifluoromethyl)-7H-pyrrolo[2,3-d]pyrimidin-2-yl)amino)-2,3-dihydrobenzo-furan-4-yl)methanone] registered a GI50 in experiment [2] of 301 to 1000 nM. Further, in experiment [3], the inhibition at 0.5 µM came to 22.5%. Further, in experiment [4], the inhibition at 1 µM was found to be 84.9%, the inhibition at 0.25 µM is 25.7% and the inhibition at 0.5 µM was 61.1%.
Take `CNc1nc(Nc2ccc(S(=O)(=O)N3CCC(N4CCOCC4)CC3)c3c2OCCO3)nc2[nH]cc(C(F)(F)F)c12` [Example 219, N^4-methyl-N^2-(8-((4-morpholinopiperidin-1-yl)sulfonyl)-2,3-dihydrobenzo[b][1,4]dioxin-5-yl)-5-(trifluoromethyl)-7H-pyrrolo[2,3-d]pyrimidine-2,4-diamine]: the GI50 in experiment [1] and in experiment [2] was 301 to 1000 nM each time. In addition, the inhibition at 0.5 µM in experiment [3] came to 6.6%; in experiment [4] it was 58.8%. Moreover, in experiment [4], the inhibition at 1 µM worked out at 84.2%. This molecule showed an inhibition at 0.25 µM in experiment [4] of 42.1%.
Take `CNc1nc(Nc2ccc(C(=O)N3CCC(N4CCOCC4)CC3)c3c2OCCO3)nc2[nH]cc(C(F)(F)F)c12` [Example 238, (8-((4-(methylamino)-5-(trifluoromethyl)-7H-pyrrolo[2,3-d]pyrimidin-2-yl)amino)-2,3-dihydrobenzo[b][1,4]dioxin-5-yl)(4-morpholinopiperidin-1-yl)methanone]: the results for the remaining binding at 1 µM in experiment [5] and in experiment [6] were 3.6% and 2.9%, respectively.
The molecule `CCNc1nc(Nc2ccc(C(=O)N3CCC(N4C[C@@H]5C[C@H]4CO5)CC3)c3c2OCC3)nc2[nH]cc(C(F)(F)F)c12` [Example 468] registered a 50% growth inhibitory concentration (GI50) in experiment [2] of 301 to 1000 nM. The inhibition at 0.5 µM in experiment [3] stood at 16.5%. Further, in experiment [4], the inhibition at 1 µM worked out at 92.5%, the inhibition at 0.25 µM is 50.3% and the inhibition at 0.5 µM stood at 75.4%.
